Active and inactive are the calls of the source. The calls are words filed in the database; no cut-off is given here.
Columns and labels:
Calf thymus DNA [1] = test: Binding affinity to calf thymus DNA assessed as dissociation constant by scatchard plot analysis; parameters: species or system Bos taurus
HL-60 = test: Antiproliferative activity against human HL-60 cells assessed as inhibition of cell proliferation measured after 72 hrs by MTT assay; assay type: functional, cell-based; settings: HL-60, 72 h
Calf thymus DNA [2] = test: Binding affinity to calf thymus DNA assessed as stoichiometry ratio of compound-DNA complex formation by scatchard plot analysis; settings: Bos taurus
HCT-116 = test: Antiproliferative activity against human HCT-116 cells assessed as inhibition of cell proliferation measured after 72 hrs by MTT assay; assay type: functional, cell-based; settings: HCT-116, 72 h
[3] = Antiproliferative activity against P-gp-positive/doxorubicin-resistant human K562/4 cells assessed as inhibition of cell proliferation measured after 72 hrs by MTT assay; assay type: functional; settings: K562/4, 72 h
K562 [4] = test: Induction of apoptosis in human K562 cells assessed as late apoptotic cells at 1.6 uM measured after 24 hrs by Annexin V-APC/PI staining based flow cytometry assay (reference value: […]); assay type: functional
NCI-H460 = test: Antiproliferative activity against human NCI-H460 cells assessed as inhibition of cell proliferation measured after 72 hrs by MTT assay; assay type: functional, cell-based; settings: NCI-H460, 72 h
[5] = Drug uptake in mouse NIH3T3 cells assessed as compound localization in mitochondria at 1 uM measured after 15 mins by Mitotracker Green FM dye based laser scanning microscope; assay type: ADME; settings: nih3t3, 0.25 h
[6] = Drug uptake in human K562i/S9 cells harboring exogenously expressed MDR1/Pgp; assay type: ADME, cell-based
[7] = Drug uptake in mouse NIH3T3 cells assessed as compound localization in cytoplasm at 1 uM measured after 15 mins by laser scanning microscope; assay type: ADME, subcellular; settings: nih3t3, 0.25 h
P388 [8] = test: Antitumour activity against mouse P388 cells xenografted subcutaneously in ip dosed BDF1 mouse assessed as inhibition of tumour growth administered qd for 5 days starting from day 1 of tumor cell inoculation and measured at day 14 to 18 post-tumor cell inoculation; assay type: functional, organism-based; settings: dose 20-60 mg/kg, time 14-18 day
K562 [9] = test: Induction of apoptosis in human K562 cells assessed as viable cells at 1.6 uM measured after 24 hrs by Annexin V-APC/PI staining based flow cytometry assay (reference value: 85.9%); assay type: functional; settings: read-out: Activity
K562 [10] = test: Induction of cell cycle arrest in human K562 cells assessed as accumulation at G2/M phase at 2XIC50 measured after 48 hrs by propidium iodide/RNase staining based flow cytometry; assay type: functional
K562 [11] = test: Induction of apoptosis in human K562 cells assessed as early apoptotic cells at 1.6 uM measured after 24 hrs by Annexin V-APC/PI staining based flow cytometry assay (reference value: 3.4%); assay type: functional
K562 [12] = test: Induction of apoptosis in human K562 cells assessed as late apoptotic cells at 1.6 uM measured after 48 hrs by Annexin V-APC/PI staining based flow cytometry assay (reference value: […]); assay type: functional
K562 [13] = test: Antiproliferative activity against human K562 cells assessed as inhibition of cell proliferation measured after 72 hrs by MTT assay; assay type: functional, cell-based; settings: K562, 72 h
[14] = molecular target: T1, DNA topoisomerase 1 (Homo sapiens) (UniProt P11387); test: Inhibition of human topoisomerase 1-mediated relaxation of supercoiled plasmid using pBR322 plasmid as substrate at 40 uM measured after 30 mins by ethidium bromide dye based agarose gel electrophoresis method
T1 sequence (whole entry): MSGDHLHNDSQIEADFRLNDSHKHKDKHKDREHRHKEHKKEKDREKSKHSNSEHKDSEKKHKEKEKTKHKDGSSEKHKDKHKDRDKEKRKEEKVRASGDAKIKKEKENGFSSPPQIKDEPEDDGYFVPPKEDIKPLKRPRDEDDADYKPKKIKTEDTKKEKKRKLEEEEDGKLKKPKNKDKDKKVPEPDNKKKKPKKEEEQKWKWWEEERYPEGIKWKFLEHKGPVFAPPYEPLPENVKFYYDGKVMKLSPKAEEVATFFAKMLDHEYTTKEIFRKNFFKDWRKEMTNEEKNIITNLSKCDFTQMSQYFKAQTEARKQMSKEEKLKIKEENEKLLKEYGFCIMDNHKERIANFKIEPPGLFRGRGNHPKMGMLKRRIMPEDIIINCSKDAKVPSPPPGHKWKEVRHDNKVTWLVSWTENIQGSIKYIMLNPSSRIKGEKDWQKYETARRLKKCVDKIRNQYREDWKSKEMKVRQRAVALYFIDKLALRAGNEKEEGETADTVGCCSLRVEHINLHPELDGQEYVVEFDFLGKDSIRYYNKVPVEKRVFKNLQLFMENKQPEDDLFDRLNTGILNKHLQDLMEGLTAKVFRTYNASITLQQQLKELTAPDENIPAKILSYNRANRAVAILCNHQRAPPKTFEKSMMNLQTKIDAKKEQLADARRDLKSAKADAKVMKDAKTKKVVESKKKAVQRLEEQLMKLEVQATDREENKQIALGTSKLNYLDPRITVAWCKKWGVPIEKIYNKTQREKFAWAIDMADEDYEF

TERT-RPE1 = test: Cytotoxicity against human TERT-RPE1 cells assessed as inhibition of cell proliferation measured after 72 hrs by MTT assay; assay type: cell-based; settings: RPE-1, 72 h
K562 [15] = test: Induction of apoptosis in human K562 cells assessed as viable cells at 1.6 uM measured after 48 hrs by Annexin V-APC/PI staining based flow cytometry assay (reference value: 85.9%); assay type: functional; settings: read-out: Activity
P388 [16] = test: Antitumour activity against mouse P388 cells xenografted intraperitoneally in BDF1 mouse assessed as mean life span time at 20 mg/kg, ip administered qd for 5 days (reference value: 11.5 +/-0.9 days); assay type: functional; settings: dose 20 mg/kg/day; time 5 day
P388 [17] = test: Antitumour activity against mouse P388 cells xenografted subcutaneously in BDF1 mouse assessed as inhibition of tumour growth at 20 mg/kg, ip administered qd for 5 days starting from day 1 of tumor cell inoculation and measured at day 18 post-tumor cell inoculation; assay type: functional; settings: P388, 432 h, time 18 day, read-out: TGI
CAPAN-1 = test: Antiproliferative activity against human CAPAN-1 cells assessed as inhibition of cell proliferation measured after 72 hrs by MTT assay; assay type: functional, cell-based; settings: CAPAN-1, 72 h
P388 [18] = test: Antitumour activity against mouse P388 cells xenografted intraperitoneally in BDF1 mouse assessed as […] T/C ratio at 20 mg/kg, ip administered qd for 5 days (reference value: 100%); assay type: functional; settings: dose 20 mg/kg/day; time 5 day
P388 [19] = test: Antitumour activity against mouse P388 cells xenografted subcutaneously in BDF1 mouse assessed as inhibition of tumour growth at 20 to 60 mg/kg, ip administered qd for 5 days starting from day 1 of tumor cell inoculation and measured at day 14 to 18 post-tumor cell inoculation; assay type: functional, organism-based; settings: dose 20-60 mg/kg, time 14-18 day, TDE = time-dependent effect
[20] = Selectivity index, ratio of IC50 for human TERT-RPE1 cells to IC50 for human CAPAN-1 cells
Calf thymus DNA [21] = test: Binding affinity to calf thymus DNA assessed as DNA intercalation by measuring decrease of negative DNA band at 245 nm at 50 uM by circular dichroism spectral analysis; assay type: tissue-based; settings: Bos taurus

Cc1[nH]c2c(O)c3c(c(O)c2c1C(=O)N1CC[C@H](N)C1)C(=O)c1ccccc1C3=O
Kd (Calf thymus DNA [1]): 700 nM | IC50 (HL-60): 900 nM | Ratio (Calf thymus DNA [2]): 4.6 | IC50 (HCT-116): 900 nM | IC50 [3]: 21.2 µM | Activity (K562 [4]): 8.3% | IC50 (NCI-H460): 900 nM | Drug uptake [5]: Active | Drug uptake [6]: Active | Drug uptake [7]: Active | Activity (P388 [8]): Dose-dependent effect | viability at 1.6 µM (K562 [9]): 69.4% | Activity (K562 [10]): Active | Activity (K562 [11]): 1.3% | Activity (K562 [12]): 7.5% | IC50 (K562 [13]): 800 nM | inhibition [14]: Active | IC50 (TERT-RPE1): 15.8 µM | viability at 1.6 µM (K562 [15]): 56.6% | Time (P388 [16]): 17.6 days | inhibition in vivo at 20 mg/kg (P388 [17]): 65% | IC50 (CAPAN-1): 500 nM | T/C (P388 [18]): 153% | Activity (P388 [19]): Tde | Ratio IC50 [20]: 18 | Activity (Calf thymus DNA [21]): Active

From ChEMBL document CHEMBL4765331, “Amides of pyrrole- and thiophene-fused anthraquinone derivatives: A role of the heterocyclic core in antitumor properties” (Eur J Med Chem, 2020)
